Reference: ChEMBL document CHEMBL5303304, “EUbOPEN Chemogenomics Library - IncuCyte” (2023)

Legend:
Format in all cases: toxicity, cell-based
HEK-293T = assay: Incucyte cell viability with HEK293T; conditions: human, 10 µM, compound concentration 10 uM
Fibroblast = assay: Incucyte cell viability with human fibroblast; conditions: 10 µM, compound concentration 10 uM
U2OS = assay: Incucyte cell viability with U2OS; conditions: human, 10 µM, compound concentration 10 uM
Note: unitless GR value; below 1 slowed growth and below 0 cell loss.

Compound | Growth Rate (HEK-293T; 0 h, replicate number 2) | Growth Rate (HEK-293T; 6 h, replicate number 2) | Growth Rate (HEK-293T; 12 h, replicate number 2) | Growth Rate (HEK-293T; 18 h, replicate number 2) | Growth Rate (HEK-293T; 24 h, replicate number 1) | Growth Rate (HEK-293T; 24 h, replicate number 2) | Growth Rate (Fibroblast; 0 h, replicate number 1) | Growth Rate (Fibroblast; 6 h, replicate number 1) | Growth Rate (Fibroblast; 18 h, replicate number 2) | Growth Rate (Fibroblast; 24 h, replicate number 2) | Growth Rate (U2OS; 0 h, replicate number 2) | Growth Rate (U2OS; 24 h, replicate number 1) | Growth Rate (HEK-293T; 0 h, replicate number 1) | Growth Rate (U2OS; 6 h, replicate number 2) | Growth Rate (U2OS; 12 h, replicate number 1) | Growth Rate (U2OS; 12 h, replicate number 2) | Growth Rate (U2OS; 18 h, replicate number 1) | Growth Rate (U2OS; 24 h, replicate number 2) | Growth Rate (Fibroblast; 12 h, replicate number 1) | Growth Rate (Fibroblast; 12 h, replicate number 2) | other results
CC(C)Oc1ccc(F)c(-c2cnc(N)c(C(=O)Nc3cnccc3N3CCC[C@@H](C(=O)O)C3)n2)c1 | 0.37 | 0.61 | -0.28 | -0.06 | -0.01 | 0.05 | 0.44 | -1 | 0.97 | 0.61 | -0.44 | 0.84 |  |  |  |  |  |  |  |  | Growth Rate (HEK-293T; 12 h, replicate number 1): -0.19; Growth Rate (HEK-293T; 18 h, replicate number 1): -0.11
COc1cc(C(N)=O)ccc1Nc1ncc2c(n1)N(CCC(C)C)[C@H](C)C(=O)N2C | -1 |  |  |  | 0.53 |  | -0.99 |  |  | 0.77 |  | -0.55 | -0.98 | 0.39 | -0.71 | 0.18 | 0.37 | 0.27 |  |  | Growth Rate (Fibroblast; 0 h, replicate number 2): -0.68; Growth Rate (U2OS; 0 h, replicate number 1): -1; Growth Rate (U2OS; 18 h, replicate number 2): 0.4
C[C@H](CCC(=O)O)[C@H]1CC[C@H]2[C@@H]3[C@H](O)C[C@@H]4C[C@H](O)CC[C@]4(C)[C@H]3C[C@H](O)[C@]12C [CHOLIC ACID] | 0.01 |  |  |  |  | 1 | 0.6 | -0.41 | 0.65 | 0.97 | 0.9 |  | 0.14 | 0.92 |  | 0.92 | 0.98 | 0.97 | 0.82 | 0.56 | Growth Rate (Fibroblast; 6 h, replicate number 2): 0.33; Growth Rate (Fibroblast; 18 h, replicate number 1): 0.38; Growth Rate (Fibroblast; 24 h, replicate number 1): 0.81
COCCNc1nc2ccc(C#CC3(O)CCCCC3)cc2n1-c1ccnc(N)n1 |  |  | 1 | 0.96 |  | 0.84 |  | -0.48 | 0.28 | 0.18 |  | 0.92 |  | 0.8 | 0.77 | 0.69 | 0.85 | 0.78 | -1 | -0.26 | Growth Rate (HEK-293T; 6 h, replicate number 1): 0.37; Growth Rate (Fibroblast; 6 h, replicate number 2): -1; Growth Rate (Fibroblast; 18 h, replicate number 1): 0.24; Growth Rate (Fibroblast; 24 h, replicate number 1): 0.3; Growth Rate (U2OS; 6 h, replicate number 1): 0.44; Growth Rate (U2OS; 18 h, replicate number 2): 0.73
O=C(NCCS(=O)(=O)c1ccc(C(F)(F)F)cn1)c1ccc(Cl)cc1 |  | 0.83 | 0.73 | 0.77 |  | 0.79 |  |  | 0.99 | 0.73 |  | 0.93 | -0.16 |  | 0.98 |  | 0.96 |  | 0.61 | 0.53 | Growth Rate (Fibroblast; 0 h, replicate number 2): -0.73; Growth Rate (Fibroblast; 18 h, replicate number 1): 0.55; Growth Rate (Fibroblast; 24 h, replicate number 1): 0.9
CCNCCNC(=O)c1c(C)[nH]c(/C=C2\C(=O)Nc3ccc(F)cc32)c1C |  | -0.16 | -0.09 | 0.09 | -0.09 | 0.21 |  | -0.96 | 0.18 | 0.1 | -0.6 | 0.69 |  |  |  |  | 0.78 | 0.7 | -1 | 0.44 | Growth Rate (HEK-293T; 6 h, replicate number 1): -0.62; Growth Rate (HEK-293T; 12 h, replicate number 1): -0.52; Growth Rate (HEK-293T; 18 h, replicate number 1): -0.32; Growth Rate (U2OS; 18 h, replicate number 2): 0.77
